This note sets out measurements from paper PMC12406195, “Understanding the Modes of Action of β‑Ketoiminato Iridium(III) Complexes in Cancer Cells” (Inorganic Chemistry, 2025).

In test [1] the test system is MDA-MB-231 cells. Nature of the test: Acridine orange/ethidium bromide (AO/EB) staining. Particulars: MDA-MB-231, 48 h. It is filed as cell-based, human. The method, then: To investigate how the drugs impacted cell viability, acridine orange (AO)/ethidium bromide (EtBr) staining was employed to identify the MDA-MB-231 cells' mode of death in response to compound 1 or CDDP, with AO marking early apoptotic cells in green and EtBr marking late apoptotic or necrotic cells in red. […] This effect was more pronounced than with CDDP, indicating its higher efficacy.
MDA-MB-231 cells at 4000 cells/well were seeded into a black clear -bottom 96-well plate using phenol-red free complete RMPI medium, and incubated for 48 h. The cells were treated with 100 µM of 1 for 4 h alongside an untreated sample (control). […] Fluorescence images were obtained using a Zeiss Observer 7 inverted microscope at excitation at 488 nm and emission at 509 […]
(§1) Plasmid DNA (200 ng, pBOS -H2B-GFP, BD Biosciences) was incubated overnight at room temperature with 1 or CDDP at concentrations between 100 and 400 μM in double -distilled H2O (20 μL total volume). […] The experiment was conducted in two biological replicates, and the band intensities were quantified and analyzed using ImageJ software. […]
(§2) MDA-MB-231 cells were seeded in 6-well plates at a density of 1.2 × 10⁵ cells/well. […] The samples were then placed on microscope slides, covered with a coverslip, and their morphology was examined using a fluorescence microscope (Eclipse TS100, Nikon). […]

A further test deals with plasmid DNA. Nature of the test: Plasmid DNA interaction, agarose gel electrophoresis. As to conditions: 200 ng plasmid DNA, 100–400 μM, cell-free. It is filed as biochemical. The method, then:
The ability of compounds to intercalate, nick, or cleave DNA can be evaluated using gel electrophoresis with plasmid DNA. In this study, in vitro plasmid DNA assays were performed by incubating 200 ng of plasmid DNA with different concentrations (100–400 μM) of 1 or CDDP, which served as a positive control. The DNA fragments were then separated via agarose gel electrophoresis, and potential changes in DNA migration patterns were analyzed.
5 Plasmid DNA (200 ng) was incubated with varying concentrations (100, 200, and 400 μM) of compound 1 or CDDP for 24 h at room temperature. The DNA was then separated via agarose gel electrophoresis, and the intensity of supercoiled and nicked circular DNA bands was quantified and expressed as mean ± SEM (n = 4).
MDA-MB-231 cells at 4000 cells/well were seeded into a black clear -bottom 96-well plate using phenol-red free complete RMPI medium, and incubated for 48 h. […] Fluorescence images were obtained using a Zeiss Observer 7 inverted microscope at excitation at 488 nm and emission at 509 […]
as §1

Test [2] relates to MDA-MB-231 cells. Nature of the test: Reactive oxygen species (H2DCFDA fluorescence). It is filed as cell-based, human. As to conditions: MDA-MB-231, 100 μM, 4 h, compared to nontreated control. The method, then: To measure the degree of ROS produced in MDA-MB-231 cells, 2′,7′-dichlorodihydrofluorescein diacetate (H2DCFDA), a cell-permeable fluorescent dye, was used. H2DCFDA is deacetylated by esterases and consecutively oxidized by intracellular ROS into a fluorescent molecule, dichlorofluorescein (DCF).
MDA-MB-231 cells at 4000 cells/well were seeded into a black clear -bottom 96-well plate using phenol-red free complete RMPI medium, and incubated for 48 h. The cells were treated with 100 µM of 1 for 4 h alongside an untreated sample (control). 2′,7′ -dichlorodihydrofluorescein diacetate (H 2DCFDA, 20 μM final concentration in PBS ) was added for 45 min. […] Fluorescence images were obtained using a Zeiss Observer 7 inverted microscope at excitation at 488 nm and emission at 509 […]
as §1, §2

On to “[Cp*Ir(C16H14NO)(PTA)](PF6) [Compound 1]”, for which the “AO/EtBr staining (mode of cell death)” value with MDA-MB-231 cells [1] is listed as “increased staining for both dyes”. Further, in the test with plasmid DNA, the “Plasmid DNA migration” value is given as “did not induce any apparent shift”. Besides, the “ROS generation (DCF fluorescence)” value with MDA-MB-231 cells [2] is “increase in fluorescence”.
